{
  "source": "the supplement of paper PMC10307832",
  "assay_in_all_cases": "relative viability (nuclei count vs DMSO), 5 days (fraction); higher = more cells survive",
  "key": {"[1]": {"test_system": "NCI-H2228", "outline": "(§1)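 Medians of duplicate plates are given as relative viability. That measure is the nuclei count in treated wells divided by the count in vehicle wells. Counts were taken on 4× images of lung cancer cell lines in 1536-well plates, 5 days after pin-tool dosing the day after seeding with one drug alone or a fixed anchor-drug dose plus five library-drug doses (not always all listed) in √10 steps.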"}, "[2]": {"test_system": "NCI-H2405", "outline": "as §1"}, "[3]": {"test_system": "NCI-H596", "outline": "as §1"}, "[4]": {"test_system": "NCI-H2009", "outline": "as §1"}, "[5]": {"test_system": "HARA", "outline": "as §1"}, "[6]": {"test_system": "LOU-NH91", "outline": "as §1"}, "[7]": {"test_system": "LC-2-ad", "outline": "as §1"}, "[8]": {"test_system": "NCI-H1792", "outline": "as §1"}, "[9]": {"test_system": "EKVX", "outline": "as §1"}, "[10]": {"test_system": "HCC-366", "outline": "as §1"}, "[11]": {"test_system": "HCC-827", "outline": "as §1"}, "[12]": {"test_system": "SK-MES-1", "outline": "as §1"}, "[13]": {"test_system": "NCI-H647", "outline": "as §1"}, "[14]": {"test_system": "NCI-H1355", "outline": "as §1"}, "[15]": {"test_system": "NCI-H1734", "outline": "as §1"}, "[16]": {"test_system": "NCI-H1437", "outline": "as §1"}, "[17]": {"test_system": "NCI-H2087", "outline": "as §1"}, "[18]": {"test_system": "BEN", "outline": "as §1"}, "[19]": {"test_system": "NCI-H1395", "outline": "as §1"}, "[20]": {"test_system": "SK-LU-1", "outline": "as §1"}, "[21]": {"test_system": "NCI-H2170", "outline": "as §1"}},
  "data": [
    {"smiles": "O=C(O)c1ccc(-c2c[nH]c3ncc(-c4ccccc4)cc23)cc1C1CCCC1", "note": "+ CC1(C)CCC(c2ccc(Cl)cc2)=C(CN2CCN(c3ccc(C(=O)NS(=O)(=O)c4ccc(N[C@H](CCN5CCOCC5)CSc5ccccc5)c(S(=O)(=O)C(F)(F)F)c4)cc3)CC2)C1 [Navitoclax] (partner 0.5 µM)", "values": [
      {"measurement": "relative viability", "setting": "[1]; first compound 0.04 µM", "result": 0.927},
      {"measurement": "relative viability", "setting": "[1]; first compound 0.1265 µM", "result": 0.778},
      {"measurement": "relative viability", "setting": "[1]; first compound 0.4 µM", "result": 0.98},
      {"measurement": "relative viability", "setting": "[1]; first compound 1.265 µM", "result": 0.793},
      {"measurement": "relative viability", "setting": "[2]; first compound 0.04 µM", "result": 0.944},
      {"measurement": "relative viability", "setting": "[2]; first compound 0.1265 µM", "result": 0.811},
      {"measurement": "relative viability", "setting": "[2]; first compound 0.4 µM", "result": 0.864},
      {"measurement": "relative viability", "setting": "[2]; first compound 1.265 µM", "result": 0.348},
      {"measurement": "relative viability", "setting": "[3]; first compound 0.04 µM", "result": 0.82},
      {"measurement": "relative viability", "setting": "[3]; first compound 0.1265 µM", "result": 1.12},
      {"measurement": "relative viability", "setting": "[3]; first compound 0.4 µM", "result": 0.869},
      {"measurement": "relative viability", "setting": "[3]; first compound 1.265 µM", "result": 0.884},
      {"measurement": "relative viability", "setting": "[4]; first compound 0.04 µM", "result": 1.15},
      {"measurement": "relative viability", "setting": "[4]; first compound 0.1265 µM", "result": 1.1},
      {"measurement": "relative viability", "setting": "[4]; first compound 0.4 µM", "result": 1.15},
      {"measurement": "relative viability", "setting": "[4]; first compound 1.265 µM", "result": 0.969},
      {"measurement": "relative viability", "setting": "[5]; first compound 0.04 µM", "result": 1.08},
      {"measurement": "relative viability", "setting": "[5]; first compound 0.1265 µM", "result": 1.14},
      {"measurement": "relative viability", "setting": "[5]; first compound 0.4 µM", "result": 1.09},
      {"measurement": "relative viability", "setting": "[5]; first compound 1.265 µM", "result": 1.04},
      {"measurement": "relative viability", "setting": "[6]; first compound 0.04 µM", "result": 0.759},
      {"measurement": "relative viability", "setting": "[6]; first compound 0.1265 µM", "result": 0.73},
      {"measurement": "relative viability", "setting": "[6]; first compound 0.4 µM", "result": 0.68},
      {"measurement": "relative viability", "setting": "[6]; first compound 1.265 µM", "result": 0.541},
      {"measurement": "relative viability", "setting": "[7]; first compound 0.04 µM", "result": 0.399},
      {"measurement": "relative viability", "setting": "[7]; first compound 0.1265 µM", "result": 0.5},
      {"measurement": "relative viability", "setting": "[7]; first compound 0.4 µM", "result": 0.415},
      {"measurement": "relative viability", "setting": "[7]; first compound 1.265 µM", "result": 0.173},
      {"measurement": "relative viability", "setting": "[8]; first compound 0.04 µM", "result": 0.516},
      {"measurement": "relative viability", "setting": "[8]; first compound 0.1265 µM", "result": 0.728},
      {"measurement": "relative viability", "setting": "[8]; first compound 0.4 µM", "result": 0.661},
      {"measurement": "relative viability", "setting": "[8]; first compound 1.265 µM", "result": 0.588},
      {"measurement": "relative viability", "setting": "[9]; first compound 0.04 µM", "result": 0.92},
      {"measurement": "relative viability", "setting": "[9]; first compound 0.1265 µM", "result": 0.967},
      {"measurement": "relative viability", "setting": "[9]; first compound 0.4 µM", "result": 1.03},
      {"measurement": "relative viability", "setting": "[9]; first compound 1.265 µM", "result": 0.655},
      {"measurement": "relative viability", "setting": "[10]; first compound 0.04 µM", "result": 0.993},
      {"measurement": "relative viability", "setting": "[10]; first compound 0.1265 µM", "result": 1.2},
      {"measurement": "relative viability", "setting": "[10]; first compound 0.4 µM", "result": 0.964},
      {"measurement": "relative viability", "setting": "[10]; first compound 1.265 µM", "result": 1.14},
      {"measurement": "relative viability", "setting": "[11]; first compound 0.04 µM", "result": 0.95},
      {"measurement": "relative viability", "setting": "[11]; first compound 0.1265 µM", "result": 1.04},
      {"measurement": "relative viability", "setting": "[11]; first compound 0.4 µM", "result": 0.979},
      {"measurement": "relative viability", "setting": "[11]; first compound 1.265 µM", "result": 0.798},
      {"measurement": "relative viability", "setting": "[12]; first compound 0.04 µM", "result": 1.19},
      {"measurement": "relative viability", "setting": "[12]; first compound 0.1265 µM", "result": 1.24},
      {"measurement": "relative viability", "setting": "[12]; first compound 0.4 µM", "result": 1.05},
      {"measurement": "relative viability", "setting": "[12]; first compound 1.265 µM", "result": 0.798},
      {"measurement": "relative viability", "setting": "[13]; first compound 0.04 µM", "result": 1.1},
      {"measurement": "relative viability", "setting": "[13]; first compound 0.1265 µM", "result": 1.13},
      {"measurement": "relative viability", "setting": "[13]; first compound 0.4 µM", "result": 1.04},
      {"measurement": "relative viability", "setting": "[13]; first compound 1.265 µM", "result": 0.713},
      {"measurement": "relative viability", "setting": "[14]; first compound 0.04 µM", "result": 0.995},
      {"measurement": "relative viability", "setting": "[14]; first compound 0.1265 µM", "result": 0.957},
      {"measurement": "relative viability", "setting": "[14]; first compound 0.4 µM", "result": 1.03},
      {"measurement": "relative viability", "setting": "[14]; first compound 1.265 µM", "result": 0.683},
      {"measurement": "relative viability", "setting": "[15]; first compound 0.04 µM", "result": 0.706},
      {"measurement": "relative viability", "setting": "[15]; first compound 0.1265 µM", "result": 0.916},
      {"measurement": "relative viability", "setting": "[15]; first compound 0.4 µM", "result": 0.878},
      {"measurement": "relative viability", "setting": "[15]; first compound 1.265 µM", "result": 0.686},
      {"measurement": "relative viability", "setting": "[16]; first compound 0.04 µM", "result": 1.03},
      {"measurement": "relative viability", "setting": "[16]; first compound 0.1265 µM", "result": 1.22},
      {"measurement": "relative viability", "setting": "[16]; first compound 0.4 µM", "result": 0.955},
      {"measurement": "relative viability", "setting": "[16]; first compound 1.265 µM", "result": 0.407},
      {"measurement": "relative viability", "setting": "[17]; first compound 0.04 µM", "result": 0.856},
      {"measurement": "relative viability", "setting": "[17]; first compound 0.1265 µM", "result": 1.03},
      {"measurement": "relative viability", "setting": "[17]; first compound 0.4 µM", "result": 1.05},
      {"measurement": "relative viability", "setting": "[17]; first compound 1.265 µM", "result": 0.857},
      {"measurement": "relative viability", "setting": "[18]; first compound 0.04 µM", "result": 0.06},
      {"measurement": "relative viability", "setting": "[18]; first compound 0.1265 µM", "result": 0.057},
      {"measurement": "relative viability", "setting": "[18]; first compound 0.4 µM", "result": 0.0946},
      {"measurement": "relative viability", "setting": "[18]; first compound 1.265 µM", "result": 0.0505},
      {"measurement": "relative viability", "setting": "[19]; first compound 0.04 µM", "result": 1.13},
      {"measurement": "relative viability", "setting": "[19]; first compound 0.1265 µM", "result": 1.05},
      {"measurement": "relative viability", "setting": "[19]; first compound 0.4 µM", "result": 1.03},
      {"measurement": "relative viability", "setting": "[19]; first compound 1.265 µM", "result": 0.915},
      {"measurement": "relative viability", "setting": "[20]; first compound 0.04 µM", "result": 0.982},
      {"measurement": "relative viability", "setting": "[20]; first compound 0.1265 µM", "result": 1.01},
      {"measurement": "relative viability", "setting": "[20]; first compound 0.4 µM", "result": 0.697},
      {"measurement": "relative viability", "setting": "[20]; first compound 1.265 µM", "result": 0.482},
      {"measurement": "relative viability", "setting": "[21]; first compound 0.04 µM", "result": 0.605},
      {"measurement": "relative viability", "setting": "[21]; first compound 0.1265 µM", "result": 0.64},
      {"measurement": "relative viability", "setting": "[21]; first compound 0.4 µM", "result": 0.483},
      {"measurement": "relative viability", "setting": "[21]; first compound 1.265 µM", "result": 0.503}
    ]}
  ]
}
